Assay in all cases: Example B1 herbicidal action, post-emergence, 96-cell seed trays, climatic chamber
Format in all cases: in vivo

For assay [1], the system named is Nasturtium officinale (NAAOF). Also on record: scale not given here. The note with it: Application post-emergence, 1000 mg/l spray equivalent to 1000 g/ha, evaluated after 9 days (100=total damage to plant, 0=no damage to plant). The essentials: (§1)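 Plants at 8–9 days post-sowing (23/17 °C, 13 h light, 50–60% humidity) sprayed post-emergence with 1000 mg/l active ingredient in 10% DMSO, equivalent to 1000 g/ha. Grown on at 24/19 °C, watered twice daily; damage scored after 9 days (0 = none, 100 = total).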

Assay [2] concerns Amaranthus retroflexus (AMARE). The note with it: Application post-emergence, 1000 mg/l spray equivalent to 1000 g/ha, evaluated after 9 days. The essentials:
as §1

The test system of the next assay is Solanum nigrum (SOLNI). The note with it: Application post-emergence, 1000 mg/l spray equivalent to 1000 g/ha, evaluated after 9 days (100=total damage to plant, 0=no damage to plant). The essentials: as §1
Another assay relates to Stellaria media (STEME). The note with it: Application post-emergence, 1000 mg/l spray equivalent to 1000 g/ha, evaluated after 9 days (100=total damage to plant, 0=no damage to plant). The essentials: as §1

For `CCn1c(=O)c(-c2ccc(Cl)cc2Cl)c(OC(=O)C(C)(C)C)c2nccnc21` [Compound C62], the “damage to plant, Nasturtium officinale (NAAOF)” value (shortened to “damage to plant … (NAAOF)”) in assay [1] came to 8. Also, in assay [2], the “damage to plant, Amaranthus retroflexus (AMARE)” value (shortened to “damage to plant … (AMARE)”) is recorded as 7. In addition, the “damage to plant, Solanum nigrum (SOLNI)” value in the assay on Solanum nigrum (SOLNI) stood at 1. In the assay with Stellaria media (STEME), the “damage to plant, Stellaria media (STEME)” value is reported as 8.
For `CC(C)C(=O)Oc1c(-c2ccc(Cl)cc2Cl)c(=O)n(C)c2nccnc12` [Compound C63], the “damage to plant … (NAAOF)” value in assay [1] is recorded as 9. In assay [2], the “damage to plant … (AMARE)” value is listed as 5. Also, the “damage to plant, Solanum nigrum (SOLNI)” value with Solanum nigrum (SOLNI) is recorded as 5. Also, the “damage to plant, Stellaria media (STEME)” value in the assay on Stellaria media (STEME) is 8.
With `CCn1c(=O)c(-c2ccc(Cl)cc2Cl)c(OC(=O)C(C)C)c2nccnc21` [Compound C64], in assay [1], the “damage to plant … (NAAOF)” value is 10. For the same compound, the “damage to plant … (AMARE)” value in assay [2] is given as 6. Also, in the assay on Solanum nigrum (SOLNI), the “damage to plant, Solanum nigrum (SOLNI)” value is given as 8. Moreover, the “damage to plant, Stellaria media (STEME)” value in the assay with Stellaria media (STEME) was found to be 10.
Take `CCc1cc(C)cc(CC)c1-c1c(OC(=O)C(C)C)c2nccnc2n(C)c1=O` [Compound C65]: the “damage to plant … (NAAOF)” value in assay [1] was 7. The “damage to plant … (AMARE)” value in assay [2] came to 4. In addition, the “damage to plant, Solanum nigrum (SOLNI)” value in the assay with Solanum nigrum (SOLNI) was found to be 3. The “damage to plant, Stellaria media (STEME)” value in the assay with Stellaria media (STEME) turned out to be 6.
For `CCn1c(=O)c(-c2cccc(Cl)c2)c(OC(C)=O)c2nccnc21` [Compound C66], in that order: 7, 0, 0 and 7.
Consider `CCn1c(=O)c(-c2ccc(Cl)cc2)c(OC(C)=O)c2nccnc21` [Compound C67], for which the “damage to plant … (NAAOF)” value in assay [1] came out at 8. Further, the “damage to plant … (AMARE)” value in assay [2] is recorded as 4. Moreover, in the assay with Solanum nigrum (SOLNI), the “damage to plant, Solanum nigrum (SOLNI)” value came to 0. Further, the “damage to plant, Stellaria media (STEME)” value with Stellaria media (STEME) was 6.
Consider `CC(C)C(=O)Oc1c(-c2cc(Cl)cc(Cl)c2Cl)c(=O)n(C)c2nccnc12` [Compound C68], for which the “damage to plant … (NAAOF)” value in assay [1] is 5. Moreover, the “damage to plant … (AMARE)” value in assay [2] worked out at 0. The “damage to plant, Solanum nigrum (SOLNI)” value in the assay on Solanum nigrum (SOLNI) is given as 0. Besides, in the assay on Stellaria media (STEME), the “damage to plant, Stellaria media (STEME)” value is 5.
Regarding `COc1ccccc1-c1c(OC(=O)C(C)C)c2nccnc2n(C)c1=O` [Compound C69], the “damage to plant … (NAAOF)” value in assay [1] was found to be 5. For the same compound, in assay [2], the “damage to plant … (AMARE)” value turned out to be 0. For the same compound, the “damage to plant, Solanum nigrum (SOLNI)” value with Solanum nigrum (SOLNI) was found to be 0. Further, in the assay on Stellaria media (STEME), the “damage to plant, Stellaria media (STEME)” value is recorded as 6.
Consider `CCn1c(=O)c(-c2ccccc2OC)c(OC(=O)C(C)C)c2nccnc21` [Compound C70], for which, in assay [1], the “damage to plant … (NAAOF)” value is listed as 4. Further, in assay [2], the “damage to plant … (AMARE)” value turned out to be 0. For the same compound, in the assay with Solanum nigrum (SOLNI), the “damage to plant, Solanum nigrum (SOLNI)” value is 0. Moreover, the “damage to plant, Stellaria media (STEME)” value with Stellaria media (STEME) was found to be 3.
For `CC(C)C(=O)Oc1c(-c2c(F)ccc(F)c2Cl)c(=O)n(C)c2ncc[n+]([O-])c12` [Compound C71, isobutyric acid 7-(2-chloro-3,6-difluorophenyl)-5-methyl-6-oxo-1-oxy-5,6-dihydropyrido[2,3-]pyrazin-8-yl ester], in assay [1], the “damage to plant … (NAAOF)” value is given as 7. In addition, the “damage to plant … (AMARE)” value in assay [2] was 0. Also, the “damage to plant, Solanum nigrum (SOLNI)” value in the assay on Solanum nigrum (SOLNI) was 2. Moreover, the “damage to plant, Stellaria media (STEME)” value in the assay on Stellaria media (STEME) was 8.
For `CCn1c(=O)c(-c2ccc(Cl)c(Cl)c2)c(OC(C)=O)c2nccnc21` [Compound C72], in that order: 8, 0, 0 and 2.
For `CC#CCOC(=O)Oc1c(-c2c(F)ccc(F)c2Cl)c(=O)n(C)c2nccnc12` [Compound C73] the same measures were 6, 4, 0 and 4.
For the compound `Cc1cc(C)c(-c2c(OC(=O)C(C)C)c3nccnc3n(C)c2=O)c(C)c1` [Compound C75], the “damage to plant … (NAAOF)” value in assay [1] is 6. The “damage to plant … (AMARE)” value in assay [2] was 3. The “damage to plant, Solanum nigrum (SOLNI)” value in the assay on Solanum nigrum (SOLNI) is recorded as 7. Further, in the assay on Stellaria media (STEME), the “damage to plant, Stellaria media (STEME)” value is 7.
On to `CC(C)C(=O)Oc1c(-c2c(Cl)cccc2C(F)(F)F)c(=O)n(C)c2nccnc12` [Compound C76], for which the “damage to plant … (NAAOF)” value in assay [1] came out at 6. In addition, the “damage to plant … (AMARE)” value in assay [2] is 7. Besides, in the assay with Solanum nigrum (SOLNI), the “damage to plant, Solanum nigrum (SOLNI)” value was determined as 4. Moreover, the “damage to plant, Stellaria media (STEME)” value in the assay on Stellaria media (STEME) came out at 6.
Consider `CCn1c(=O)c(-c2cccc(C(F)(F)F)c2Cl)c(OC(=O)C(C)C)c2nccnc21` [Compound C78], for which the “damage to plant … (NAAOF)” value in assay [1] is 8. The “damage to plant … (AMARE)” value in assay [2] amounted to 6. Moreover, the “damage to plant, Solanum nigrum (SOLNI)” value in the assay on Solanum nigrum (SOLNI) amounted to 4. Further, the “damage to plant, Stellaria media (STEME)” value with Stellaria media (STEME) is listed as 6.
As for `CC(C)C(=O)Oc1c(-c2c(Cl)ccc(Cl)c2Cl)c(=O)n(C)c2nccnc12` [Compound C79], the “damage to plant … (NAAOF)” value in assay [1] was 5. In addition, the “damage to plant … (AMARE)” value in assay [2] came to 6. In addition, the “damage to plant, Solanum nigrum (SOLNI)” value in the assay with Solanum nigrum (SOLNI) was found to be 6. Besides, the “damage to plant, Stellaria media (STEME)” value with Stellaria media (STEME) is recorded as 7.
Consider `CCn1c(=O)c(-c2c(Cl)cccc2C(F)(F)F)c(OC(=O)C(C)C)c2nccnc21` [Compound C80], for which the “damage to plant … (NAAOF)” value in assay [1] is on record as 6. Moreover, the “damage to plant … (AMARE)” value in assay [2] turned out to be 7. Also, the “damage to plant, Solanum nigrum (SOLNI)” value in the assay on Solanum nigrum (SOLNI) is 2. The “damage to plant, Stellaria media (STEME)” value with Stellaria media (STEME) was 8.
For `CCn1c(=O)c(-c2c(C)cc(C)cc2C)c(OC(C)=O)c2nccnc21` [Compound C81] the same measures were 8, 5, 4 and 8.
For `CC(C)C(=O)Oc1c(-c2c(F)ccc(F)c2Cl)c(=O)n(C)c2nc(Cl)cnc12` [Compound C82] the same measures were 0, 4, 0 and 0.
For `CC(C)C(=O)Oc1c(-c2c(F)ccc(F)c2Cl)c(=O)n(C)c2ncc(Cl)nc12` [Compound C83], in that order: 0, 0, 1 and 0.
In the case of `Cn1c(=O)c(-c2c(F)ccc(F)c2Cl)c(OC(=O)c2ccccc2)c2nccnc21` [Compound C84], the “damage to plant … (NAAOF)” value in assay [1] is 5. The “damage to plant … (AMARE)” value in assay [2] is on record as 6. Further, the “damage to plant, Solanum nigrum (SOLNI)” value in the assay with Solanum nigrum (SOLNI) was determined as 8. Further, in the assay on Stellaria media (STEME), the “damage to plant, Stellaria media (STEME)” value came to 7.
Consider `COc1cccc(C(=O)Oc2c(-c3c(F)ccc(F)c3Cl)c(=O)n(C)c3nccnc23)c1` [Compound C85], for which the “damage to plant … (NAAOF)” value in assay [1] amounted to 3. Also, the “damage to plant … (AMARE)” value in assay [2] came out at 5. Besides, the “damage to plant, Solanum nigrum (SOLNI)” value in the assay with Solanum nigrum (SOLNI) was found to be 4. Besides, the “damage to plant, Stellaria media (STEME)” value in the assay with Stellaria media (STEME) is recorded as 4.
Regarding `Cn1c(=O)c(-c2c(F)ccc(F)c2Cl)c(OC(=O)c2ccco2)c2nccnc21` [Compound C86], the “damage to plant … (NAAOF)” value in assay [1] worked out at 6. For the same compound, in assay [2], the “damage to plant … (AMARE)” value turned out to be 7. In addition, in the assay on Solanum nigrum (SOLNI), the “damage to plant, Solanum nigrum (SOLNI)” value is on record as 7. Moreover, the “damage to plant, Stellaria media (STEME)” value with Stellaria media (STEME) is reported as 6.
For `CCC(C)C(=O)Oc1c(-c2c(F)ccc(F)c2Cl)c(=O)n(C)c2nccnc12` (centres unmarked) [Compound C87], the “damage to plant … (NAAOF)” value in assay [1] was determined as 4. Besides, the “damage to plant … (AMARE)” value in assay [2] is 6. Further, the “damage to plant, Solanum nigrum (SOLNI)” value in the assay with Solanum nigrum (SOLNI) is reported as 6. Further, the “damage to plant, Stellaria media (STEME)” value in the assay on Stellaria media (STEME) came to 2.
As to `CCC(CC)C(=O)Oc1c(-c2c(F)ccc(F)c2Cl)c(=O)n(C)c2nccnc12` [Compound C89], the “damage to plant … (NAAOF)” value in assay [1] is reported as 5. In addition, the “damage to plant … (AMARE)” value in assay [2] turned out to be 5. In addition, the “damage to plant, Solanum nigrum (SOLNI)” value with Solanum nigrum (SOLNI) stood at 4. Further, the “damage to plant, Stellaria media (STEME)” value in the assay on Stellaria media (STEME) stood at 5.
`CC(C)=CC(=O)Oc1c(-c2c(F)ccc(F)c2Cl)c(=O)n(C)c2nccnc12` [Compound C90]: the “damage to plant … (NAAOF)” value in assay [1] is on record as 6. For the same compound, the “damage to plant … (AMARE)” value in assay [2] was determined as 3. The “damage to plant, Solanum nigrum (SOLNI)” value in the assay on Solanum nigrum (SOLNI) was found to be 8. Moreover, the “damage to plant, Stellaria media (STEME)” value in the assay on Stellaria media (STEME) was 7.
For `Cn1c(=O)c(-c2c(F)ccc(F)c2Cl)c(OC(=O)c2cccs2)c2nccnc21` [Compound C91] the same measures were 4, 7, 8 and 8.
For `CCCCC(CC)C(=O)Oc1c(-c2c(F)ccc(F)c2Cl)c(=O)n(C)c2nccnc12` (centres unmarked) [Compound C92] the same measures were 2, 5, 7 and 6.
For `CCC(C(=O)Oc1c(-c2c(F)ccc(F)c2Cl)c(=O)n(C)c2nccnc12)c1ccccc1` (centres unmarked) [Compound C94], in that order: 7, 5, 4 and 6.
